Tests used:
Mnn5 (AfMnn5) = target: T1, Mnn5 (AfMnn5) (Aspergillus fumigatus, UniProt B0Y1T7); test: reverse-phase HPLC of products; format: biochemical; conditions: acceptor 1.5 mM; 10 mM GDP-Man, 0.5 mM MnCl2, pH 6.8, 30 °C, 16 h
T1 construct: gene AFUB_060800; N-terminal 6xHis, transmembrane residues 1-29 removed (30-492), expressed in E. coli SHuffle T7 Express, about 52 kDa
T1 sequence (B0Y1T7 30-492): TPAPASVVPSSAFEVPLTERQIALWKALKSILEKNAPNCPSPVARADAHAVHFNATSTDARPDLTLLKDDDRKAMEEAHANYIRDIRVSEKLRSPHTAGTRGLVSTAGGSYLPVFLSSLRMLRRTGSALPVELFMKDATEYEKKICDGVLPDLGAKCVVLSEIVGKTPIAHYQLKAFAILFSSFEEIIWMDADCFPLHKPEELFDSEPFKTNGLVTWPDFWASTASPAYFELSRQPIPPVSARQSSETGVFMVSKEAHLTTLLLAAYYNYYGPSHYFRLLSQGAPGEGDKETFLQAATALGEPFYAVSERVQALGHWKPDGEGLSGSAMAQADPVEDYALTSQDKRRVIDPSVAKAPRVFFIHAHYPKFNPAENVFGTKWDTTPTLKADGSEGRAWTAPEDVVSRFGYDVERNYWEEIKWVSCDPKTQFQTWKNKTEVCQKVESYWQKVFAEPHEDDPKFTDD

Mnn2 (AfMnn2) = target: T2, Mnn2 (AfMnn2) (Aspergillus fumigatus, UniProt B0YD06); test: reverse-phase HPLC of products; format: biochemical; conditions: acceptor 1.5 mM; 10 mM GDP-Man, 0.5 mM MnCl2, pH 6.8, 30 °C, 16 h
T2 construct: gene AFUB_093840; N-terminal 6xHis, transmembrane residues 1-30 removed (31-493), expressed in E. coli SHuffle T7 Express, about 53 kDa
T2 sequence (B0YD06 31-493): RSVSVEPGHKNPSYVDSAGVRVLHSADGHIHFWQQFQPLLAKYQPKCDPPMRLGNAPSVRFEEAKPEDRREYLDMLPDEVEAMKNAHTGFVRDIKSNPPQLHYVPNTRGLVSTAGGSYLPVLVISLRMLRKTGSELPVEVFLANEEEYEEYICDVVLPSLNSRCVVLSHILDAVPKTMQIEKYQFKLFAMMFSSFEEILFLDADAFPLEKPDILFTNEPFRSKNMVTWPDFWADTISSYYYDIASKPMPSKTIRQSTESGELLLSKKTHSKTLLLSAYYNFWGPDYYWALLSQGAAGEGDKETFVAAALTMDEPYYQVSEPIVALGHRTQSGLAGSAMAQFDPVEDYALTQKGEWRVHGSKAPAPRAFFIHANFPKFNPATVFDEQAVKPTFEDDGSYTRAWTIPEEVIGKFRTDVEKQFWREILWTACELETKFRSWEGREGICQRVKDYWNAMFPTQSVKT

## O=[N+]([O-])c1ccc(O[C@H]2O[C@H](CO)[C@@H](O)[C@H](O)[C@@H]2O)cc1 [p-nitrophenyl α-D-mannopyranoside]
Mnn5 (AfMnn5)
  reverse-phase HPLC of products: fractions containing Mnn2 or Mnn5 revealed new products
Mnn2 (AfMnn2)
  reverse-phase HPLC of products: fractions containing Mnn2 or Mnn5 revealed new products

Reference: publication PMC11237753, “Discovery of α-(1→6)-linked mannan structures resembling yeast N-glycan outer chains in Aspergillus fumigatus mycelium” (mSphere, 2024)
